Experimental data as given in ChEMBL document CHEMBL1201862, “PubChem BioAssay data set” (2004).
Activity calls are given as the source filed them.

How the values were obtained:
[1] = target: T1, Beta-lactamase (Pseudomonas aeruginosa, UniProt Q79MP6); test: inhibition of IMP-1 beta-lactamase activity – biochemical, epi-absorbance, selectivity assay for VIM-2 inhibitor project, dose response (AID 1920)
[2] = target: Beta-lactamase (Salmonella choleraesuis (strain SC-B67), UniProt Q5J463); test: Epi-absorbance-based counterscreen for selective VIM-2 inhibitors: dose response biochemical high throughput screening assay to identify inhibitors of TEM-1 serine-beta-lactamase.
[3] = target: T1, Beta-lactamase; test: […] counterscreen for selective VIM-2 inhibitors: dose response biochemical high throughput screening assay to identify inhibitors of IMP-1 metallo-beta-lactamase.
[4] = target: T2, Disintegrin and metalloproteinase domain-containing protein 17 (Homo sapiens, UniProt P78536); test: inhibition of ADAM17 substrate cleavage – biochemical, quenched FRET substrate, counter-screen for ADAM10 exosite inhibitor project, dose response (AID 743253)
[5] = target: Voltage-dependent T-type calcium channel subunit alpha-1H (Homo sapiens, UniProt O95180); assay type: functional;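 also: channel activity triggered by adding a high calcium stimulation buffer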
[6] = NIH3T3 cell viability loss – ATP luminescence, mouse fibroblasts, counter-screen, dose response (AID 2010); assay type: functional, cell-based;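 also: cells exposed to compound for about 90 hours before reading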
[7] = Trypanosoma cruzi growth suppression in host cells – NIH3T3 host cells, beta-gal luminescence, confirmation (AID 2044); assay type: functional, cell-based;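 also: intracellular parasites grown in NIH/3T3 mouse fibroblasts as host cells; luminescent beta-galactosidase reporter signal from transgenic T. cruzi replicating inside host cells; inhibitors lower the luminescence signal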
[8] = potency of ADAM10 substrate cleavage blockers – biochemical, QFRET, dose response (AID 743254);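 also: ADAM10 enzyme with the DM2 quenched FRET peptide as substrate; EDANS fluorescence gain as the protease cuts the substrate; inhibitor potency against ADAM10 proteolytic activity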
[9] = system: HT-1080; test: HT1080 cell viability loss – fluorescence readout (AID 620); assay type: functional, cell-based; conditions: Homo sapiens
[10] = target: Fructose-bisphosphate aldolase (Mycobacterium tuberculosis, UniProt P9WQA3); test: Fluorescence-based biochemical high throughput dose response assay for inhibitors of the fructose-bisphosphate aldolase (FBA) of M. tuberculosis.; assay type: functional
[11] = target: Luciferin 4-monooxygenase (Photinus pyralis, UniProt P08659); test: Counter Screen for Luciferase-based Assay Positives. [Related pubchem assays: 620, 618, 411 ]
[12] = target: T3, Heat shock factor protein 1 (Mus musculus, UniProt P38532); test: enhancement of HSF1-driven luciferase signal – cell-based, NIH3T3, luminescence, dose retest, confirmation (AID 435004); assay type: functional;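 also: stress induced by proteasome inhibitor MG132 added 30 min after compound; luciferase reporter driven by HSF1 response element in NIH3T3 cells; actives raise luminescence as potentiators of the MG132 stress response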
T3 sequence (P38532 whole entry): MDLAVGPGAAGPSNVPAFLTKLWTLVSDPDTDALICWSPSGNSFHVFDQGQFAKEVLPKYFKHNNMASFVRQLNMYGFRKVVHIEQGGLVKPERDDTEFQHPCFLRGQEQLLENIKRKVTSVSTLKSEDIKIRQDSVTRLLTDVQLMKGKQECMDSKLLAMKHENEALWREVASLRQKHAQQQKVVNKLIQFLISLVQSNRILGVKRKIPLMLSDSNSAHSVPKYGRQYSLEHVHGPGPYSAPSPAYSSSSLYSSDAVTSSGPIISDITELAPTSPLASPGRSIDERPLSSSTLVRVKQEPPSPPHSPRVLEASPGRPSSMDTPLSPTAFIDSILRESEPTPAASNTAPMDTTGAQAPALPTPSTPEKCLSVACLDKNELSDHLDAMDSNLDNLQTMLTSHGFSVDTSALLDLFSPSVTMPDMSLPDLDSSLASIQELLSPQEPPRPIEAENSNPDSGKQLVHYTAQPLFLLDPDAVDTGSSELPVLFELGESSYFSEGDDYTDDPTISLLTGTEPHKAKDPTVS

[13] = viability of uninfected HEp-2 cells – cell-based, HTS, cytotoxicity control for RSV inhibitor project, dose response (AID 2410); assay type: functional; conditions: human respiratory syncytial virus
[14] = inhibition of ADAM10 peptide cleavage – biochemical, FRET peptide substrate, recombinant human ADAM10, selectivity assay for ADAM17 exosite inhibitor project, dose response (AID 743259);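 also: ADAM10 enzyme cleaving a FRET peptide substrate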
[15] = target: T2, Disintegrin and metalloproteinase domain-containing protein 17; test: exosite inhibitors of ADAM17, dose response, biochemical (AID 743260)
[16] = Counterscreen for inhibitors of Trypanosoma brucei methionyl tRNA synthetase (MetRS): Luminescence-based cell-based high throughput dose response assay to identify compounds that are cytotoxic to Jurkat human T lymphocyte cells.; assay type: functional
[17] = target: T4, Methionyl-tRNA synthetase, putative (Trypanosoma brucei brucei, UniProt Q38C91); assay type: functional, Trypanosoma brucei brucei strain 927/4 GUTat10.1
T4 sequence (Q38C91 whole entry): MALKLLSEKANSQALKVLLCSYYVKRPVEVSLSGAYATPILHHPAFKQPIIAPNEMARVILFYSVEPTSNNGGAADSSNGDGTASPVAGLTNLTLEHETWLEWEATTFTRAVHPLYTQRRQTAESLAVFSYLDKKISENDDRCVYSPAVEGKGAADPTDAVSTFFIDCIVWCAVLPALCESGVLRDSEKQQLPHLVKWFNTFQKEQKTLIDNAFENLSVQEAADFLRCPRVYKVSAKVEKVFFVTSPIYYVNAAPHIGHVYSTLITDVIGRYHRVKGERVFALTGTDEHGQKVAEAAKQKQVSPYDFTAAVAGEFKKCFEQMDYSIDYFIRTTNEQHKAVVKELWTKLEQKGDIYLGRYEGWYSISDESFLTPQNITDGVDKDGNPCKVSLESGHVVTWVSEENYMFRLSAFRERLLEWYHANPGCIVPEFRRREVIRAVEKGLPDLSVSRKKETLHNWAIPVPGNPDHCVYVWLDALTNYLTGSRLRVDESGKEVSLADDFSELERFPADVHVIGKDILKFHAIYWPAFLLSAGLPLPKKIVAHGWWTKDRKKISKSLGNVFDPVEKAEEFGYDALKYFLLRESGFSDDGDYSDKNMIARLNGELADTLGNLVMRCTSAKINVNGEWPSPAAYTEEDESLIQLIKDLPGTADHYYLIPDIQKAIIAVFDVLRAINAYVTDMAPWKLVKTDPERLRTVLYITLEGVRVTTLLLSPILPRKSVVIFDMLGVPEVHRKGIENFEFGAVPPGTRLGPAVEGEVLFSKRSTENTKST

[18] = target: T4, Methionyl-tRNA synthetase, putative; assay type: functional, Trypanosoma brucei brucei strain 927/4 GUTat10.1; remark: listed apart in the source

T2 sequence (P78536 whole entry, the tested form may be a part): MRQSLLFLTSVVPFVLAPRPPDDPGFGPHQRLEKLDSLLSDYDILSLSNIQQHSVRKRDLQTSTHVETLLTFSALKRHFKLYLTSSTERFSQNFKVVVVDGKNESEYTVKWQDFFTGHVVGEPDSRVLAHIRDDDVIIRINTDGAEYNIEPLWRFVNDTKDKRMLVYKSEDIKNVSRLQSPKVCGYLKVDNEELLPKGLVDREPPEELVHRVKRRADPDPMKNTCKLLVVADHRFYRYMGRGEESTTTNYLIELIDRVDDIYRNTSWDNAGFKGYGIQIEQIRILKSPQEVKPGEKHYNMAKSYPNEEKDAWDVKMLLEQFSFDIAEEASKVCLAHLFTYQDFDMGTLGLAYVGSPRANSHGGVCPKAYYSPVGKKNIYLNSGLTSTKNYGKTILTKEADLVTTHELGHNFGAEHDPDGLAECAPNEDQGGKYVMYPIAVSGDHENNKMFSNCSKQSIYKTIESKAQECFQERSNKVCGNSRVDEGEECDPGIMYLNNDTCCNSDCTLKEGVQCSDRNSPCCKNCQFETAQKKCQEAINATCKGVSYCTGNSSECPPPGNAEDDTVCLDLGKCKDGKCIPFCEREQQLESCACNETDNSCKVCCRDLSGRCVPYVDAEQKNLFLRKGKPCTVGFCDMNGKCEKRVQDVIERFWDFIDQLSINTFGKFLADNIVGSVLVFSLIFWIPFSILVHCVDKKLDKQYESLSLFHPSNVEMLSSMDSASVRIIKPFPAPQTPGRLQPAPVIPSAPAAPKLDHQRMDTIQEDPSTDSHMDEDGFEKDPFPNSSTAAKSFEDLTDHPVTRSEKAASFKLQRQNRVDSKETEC
T1 sequence (Q79MP6 whole entry): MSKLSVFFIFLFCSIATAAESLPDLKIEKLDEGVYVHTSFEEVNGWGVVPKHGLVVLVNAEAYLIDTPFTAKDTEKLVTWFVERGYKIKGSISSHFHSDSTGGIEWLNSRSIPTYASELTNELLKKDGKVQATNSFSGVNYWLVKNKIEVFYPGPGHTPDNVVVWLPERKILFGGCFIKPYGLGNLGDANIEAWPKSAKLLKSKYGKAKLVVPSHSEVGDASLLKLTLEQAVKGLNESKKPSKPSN
Sequence of Fructose-bisphosphate aldolase (P9WQA3 whole entry): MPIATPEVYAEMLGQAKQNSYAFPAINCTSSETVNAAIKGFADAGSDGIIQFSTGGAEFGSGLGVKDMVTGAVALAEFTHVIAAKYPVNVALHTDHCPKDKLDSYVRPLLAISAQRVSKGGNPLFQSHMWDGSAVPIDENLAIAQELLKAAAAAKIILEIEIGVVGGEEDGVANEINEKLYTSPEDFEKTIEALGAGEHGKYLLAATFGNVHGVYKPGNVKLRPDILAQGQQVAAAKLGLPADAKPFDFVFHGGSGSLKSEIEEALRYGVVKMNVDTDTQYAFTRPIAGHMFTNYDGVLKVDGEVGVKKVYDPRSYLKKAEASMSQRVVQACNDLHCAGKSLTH
Sequence of Beta-lactamase (Salmonella choleraesuis (strain SC-B67), UniProt Q5J463) (Q5J463 whole entry): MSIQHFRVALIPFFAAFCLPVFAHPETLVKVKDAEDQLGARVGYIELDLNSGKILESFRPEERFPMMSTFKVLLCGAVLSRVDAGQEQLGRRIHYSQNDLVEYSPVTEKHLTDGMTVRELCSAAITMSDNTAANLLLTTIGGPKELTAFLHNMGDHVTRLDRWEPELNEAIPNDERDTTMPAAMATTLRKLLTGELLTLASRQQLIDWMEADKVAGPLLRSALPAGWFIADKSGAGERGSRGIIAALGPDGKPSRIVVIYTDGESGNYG
Sequence of Voltage-dependent T-type calcium channel subunit alpha-1H (O95180 whole entry): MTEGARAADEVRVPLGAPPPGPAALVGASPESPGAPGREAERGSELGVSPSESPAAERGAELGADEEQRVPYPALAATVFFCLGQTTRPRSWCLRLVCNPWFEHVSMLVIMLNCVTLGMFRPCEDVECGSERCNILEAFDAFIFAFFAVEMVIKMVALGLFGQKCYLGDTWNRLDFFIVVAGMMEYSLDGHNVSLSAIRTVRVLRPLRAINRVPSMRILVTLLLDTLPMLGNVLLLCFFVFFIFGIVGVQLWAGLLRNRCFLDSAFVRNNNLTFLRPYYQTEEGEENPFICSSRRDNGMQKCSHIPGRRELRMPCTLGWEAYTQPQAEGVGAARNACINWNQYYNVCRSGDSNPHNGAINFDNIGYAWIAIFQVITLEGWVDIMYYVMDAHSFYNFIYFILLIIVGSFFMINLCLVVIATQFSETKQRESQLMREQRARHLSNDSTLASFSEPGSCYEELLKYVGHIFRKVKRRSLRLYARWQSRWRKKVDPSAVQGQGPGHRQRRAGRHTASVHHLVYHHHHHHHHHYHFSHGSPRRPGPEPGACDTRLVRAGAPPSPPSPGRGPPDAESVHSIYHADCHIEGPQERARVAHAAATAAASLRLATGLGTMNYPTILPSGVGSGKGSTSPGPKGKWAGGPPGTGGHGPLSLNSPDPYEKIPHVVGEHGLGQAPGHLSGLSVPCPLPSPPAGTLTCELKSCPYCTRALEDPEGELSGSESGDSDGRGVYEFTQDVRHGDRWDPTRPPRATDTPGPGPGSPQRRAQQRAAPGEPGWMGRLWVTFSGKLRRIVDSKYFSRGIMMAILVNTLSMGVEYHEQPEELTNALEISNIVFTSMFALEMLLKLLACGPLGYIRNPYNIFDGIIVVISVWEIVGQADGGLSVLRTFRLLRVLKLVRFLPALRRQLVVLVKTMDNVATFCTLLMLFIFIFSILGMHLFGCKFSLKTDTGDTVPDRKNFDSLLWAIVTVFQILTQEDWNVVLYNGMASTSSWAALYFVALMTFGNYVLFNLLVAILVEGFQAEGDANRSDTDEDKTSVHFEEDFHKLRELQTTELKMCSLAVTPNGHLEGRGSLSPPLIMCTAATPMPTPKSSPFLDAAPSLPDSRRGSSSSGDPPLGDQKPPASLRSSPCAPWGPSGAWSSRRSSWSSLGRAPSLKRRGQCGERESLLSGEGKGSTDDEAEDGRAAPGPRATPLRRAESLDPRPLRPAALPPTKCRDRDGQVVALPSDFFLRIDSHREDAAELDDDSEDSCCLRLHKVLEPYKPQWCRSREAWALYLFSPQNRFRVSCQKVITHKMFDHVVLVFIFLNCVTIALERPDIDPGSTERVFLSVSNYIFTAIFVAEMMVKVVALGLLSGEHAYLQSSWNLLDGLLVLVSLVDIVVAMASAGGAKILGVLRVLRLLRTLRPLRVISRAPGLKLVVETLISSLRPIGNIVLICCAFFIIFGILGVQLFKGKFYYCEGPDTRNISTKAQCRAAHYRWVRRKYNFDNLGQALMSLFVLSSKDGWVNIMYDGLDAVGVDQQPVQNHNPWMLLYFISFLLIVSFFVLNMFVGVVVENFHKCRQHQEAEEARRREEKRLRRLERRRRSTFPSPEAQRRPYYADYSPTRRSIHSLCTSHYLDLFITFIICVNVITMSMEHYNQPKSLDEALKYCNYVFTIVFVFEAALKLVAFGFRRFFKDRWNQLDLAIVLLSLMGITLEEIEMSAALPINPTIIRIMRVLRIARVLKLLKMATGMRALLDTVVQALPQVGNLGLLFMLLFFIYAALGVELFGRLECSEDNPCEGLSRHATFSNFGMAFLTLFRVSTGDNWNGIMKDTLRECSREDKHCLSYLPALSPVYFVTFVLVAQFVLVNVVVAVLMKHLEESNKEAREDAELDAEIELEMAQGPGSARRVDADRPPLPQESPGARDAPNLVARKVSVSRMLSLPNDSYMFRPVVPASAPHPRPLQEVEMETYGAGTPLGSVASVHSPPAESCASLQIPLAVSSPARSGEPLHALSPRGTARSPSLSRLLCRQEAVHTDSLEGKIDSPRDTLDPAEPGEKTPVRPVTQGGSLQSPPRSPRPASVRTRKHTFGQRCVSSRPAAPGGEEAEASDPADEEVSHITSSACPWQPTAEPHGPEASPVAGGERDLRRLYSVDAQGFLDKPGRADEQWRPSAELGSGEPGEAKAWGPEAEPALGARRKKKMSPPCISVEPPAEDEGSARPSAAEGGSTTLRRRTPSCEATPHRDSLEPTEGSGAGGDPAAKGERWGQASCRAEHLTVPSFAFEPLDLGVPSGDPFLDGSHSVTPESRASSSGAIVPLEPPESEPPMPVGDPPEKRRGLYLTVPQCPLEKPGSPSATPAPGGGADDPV
Sequence of Luciferin 4-monooxygenase (P08659 whole entry): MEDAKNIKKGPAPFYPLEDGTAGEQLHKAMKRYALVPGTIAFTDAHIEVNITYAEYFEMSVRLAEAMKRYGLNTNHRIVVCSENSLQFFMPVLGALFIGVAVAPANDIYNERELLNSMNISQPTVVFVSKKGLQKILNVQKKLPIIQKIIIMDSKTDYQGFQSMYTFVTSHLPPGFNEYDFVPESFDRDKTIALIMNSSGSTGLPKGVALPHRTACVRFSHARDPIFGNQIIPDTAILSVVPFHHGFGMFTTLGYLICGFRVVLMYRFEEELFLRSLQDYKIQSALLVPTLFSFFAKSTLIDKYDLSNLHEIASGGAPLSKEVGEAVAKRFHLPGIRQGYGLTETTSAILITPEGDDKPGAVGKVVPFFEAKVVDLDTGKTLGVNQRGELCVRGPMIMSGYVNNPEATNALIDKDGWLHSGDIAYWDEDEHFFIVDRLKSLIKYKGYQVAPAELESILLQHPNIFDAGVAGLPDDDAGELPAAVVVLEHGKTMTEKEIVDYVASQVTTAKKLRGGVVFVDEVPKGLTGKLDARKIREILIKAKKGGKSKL

With `CC1CCCCC1n1c(S)nnc1-c1cccnc1` (configuration not stated) the IC50 [1] was > 59.6 µM (inactive), the IC50 [2] was > 59.6 µM (inactive) and the IC50 [3] was > 59.6 µM (inactive).

In the case of `Cc1cccc2cc(CN(Cc3ccco3)C(=O)Nc3cccc(C#N)c3)c(Cl)nc12`, the IC50 [4] was > 69.5 µM (inactive), the EC50 [5] was 6.15 µM (active) and the EC50 [6] was 26.5 µM (active). For the same compound, the EC50 [7] was 1.94 µM (active) and the IC50 [8] was > 69.5 µM (inactive).

For `Cc1ccc2nc(-c3cccc(N)c3)oc2c1`, the EC50 [9] was > 50 µM (not active), the IC50 [10] was 0.588 µM (active) and the EC50 [11] was 9.87 µM (active).

For `N#Cc1c(-c2ccccc2)c(-c2ccccc2)n(Cc2ccco2)c1NC(=O)c1cccs1`, the IC50 [4] was > 69.5 µM (inactive), the EC50 [12] was > 260 µM (inactive) and the IC50 [8] was > 69.5 µM (inactive).

For `COc1ccc(Cn2nnnc2C(CC(C)C)N2CCN(c3ccccc3)CC2)cc1` (configuration not stated), the IC50 [10] was > 9.99 µM (inactive) and the CC50 [13] was > 50 µM (active).

With `Cc1cc(=O)oc2c3c(cc(OCC(=O)N4CCC[C@H]4C(=O)O)c12)OC(C)(C)CC3` the IC50 [1] was > 59.6 µM (inactive), the IC50 [2] was > 59.6 µM (inactive) and the IC50 [3] was > 59.6 µM (inactive).

In the case of `COc1ccc(Cn2cc(CN3CCS(=O)(=O)N(Cc4ccc(-c5cccc(Cl)c5)cc4)C(C)C3=O)nn2)cc1` (configuration not stated), the IC50 [14] was > 69.5 µM (inactive) and the IC50 [15] was > 69.5 µM (inactive).

For `Nc1c(Cl)ncnc1Nc1ccc(C(=O)O)cc1`, the IC50 [16] was 83.2 µM (inactive), the IC50 [17] was 12.5 µM (inactive) and the IC50 [18] was 3.93 µM (active).

For `Cc1cc(Br)ccc1NC(=O)c1ccc(-n2cncn2)c([N+](=O)[O-])c1`, the IC50 [16] was 83.3 µM (inactive), the IC50 [17] was 119 µM (inactive) and the IC50 [18] was 5.79 µM (active).
